According to patent US20230174530A1, “N-(PHENYLAMINOCARBONYL) TETRAHYDRO-ISOQUINOLINES AND RELATED COMPOUNDS AS MODULATORS OF GPR65” (PATHIOS THERAPEUTICS LIMITED, priority 2020, published 2023):

target: T1, human recombinant GPR65 (Homo sapiens, UniProt Q8IYL9); test: Human GPR65 cAMP HTRF antagonist assay; assay type: cell-based; conditions: 1321N1-hrGPR65 cells stimulated at assay pH 7.2; suppression of cAMP rise; read-out: hGPR65 IC50
T1 construct: host or cells: 1321N1 human astrocytoma cells (1321N1-hrGPR65)
Method: Human GPR65 Cyclic Adenosine Monophosphate (cAMP) Homogeneous Time Resolved Fluorescence (HTRF) Antagonist Assay Procedure
IC50 data was obtained by the following procedure:
1321N1 human astrocytoma cells stably expressing human recombinant GPR65 (1321N1-hrGPR65 cells, EuroscreenFast) were cultured according to the vendor's instructions.
Compounds were tested for their ability to antagonise GPR65, through measuring the concentration of cytoplasmic cAMP following treatment of the cells at a pH of 7.2 to activate GPR65 signalling and addition of the compound to be tested. The extent to which the expected rise in cAMP concentration upon GPR65 activation was suppressed by the added compound is indicative of its potency. The assay was carried out according to EuroscreenFast assay methodology as follows.
On the day of the assay, test compounds were added to 384-well, low volume, white microtiter plates by acoustic dispensing. KRH buffer (5 mM KCl, 1.25 mM MgSO4, 124 mM NaCl, 25 mM HEPES, 13.3 mM Glucose, 1.25 mM KH2PO4 and 1.45 mM CaCl2) was adjusted to pH 6.5, pH 7.6 and pH 8.4 by adding NaOH. 1321N1-hGPR65 cells were rapidly thawed and diluted in KRH, pH 7.6 prior to centrifugation at 300×g for 5 min and resuspension in assay buffer (KRH, pH 7.6, supplemented with 1 mM 3-isobutyl-1-methylxanthine (IBMX) and 200 μM ethylenediaminetetraacetic acid (EDTA)). Cells were added to assay plates at a density of 2,000 cells per well in a volume of 5 μl. Assay plates were briefly centrifuged at 100×g and then incubated at room temperature for 30 min. Cells were stimulated by the addition of 5 μL KRH, pH 6.5, to achieve an assay pH of 7.2, while control wells received 5 μl KRH, pH 8.4 to achieve an assay pH of 7.9. Assay plates were briefly centrifuged at 100×g and then incubated at room temperature for 30 min.
Accumulation of cAMP was detected by cAMP HTRF kit (Cisbio). d2-labeled cAMP and cryptate-labeled anti-cAMP antibody in Lysis and Detection Buffer (Cisbio) were added to assay plates, and the plates were incubated at room temperature for 1 h. HTRF measurements were performed using a Pherastar FSX instrument. Acceptor and donor emission signals were measured at 665 nm and 620 nm, respectively, and HTRF ratios were calculated as signal665 nm/signal620 nm×10^4. Data were normalised to high and low control values and fitted with 4-parameter logistic regression to determine hGPR65 IC50 values for the test compounds, which are shown in Table 1.

T1 sequence (Q8IYL9 whole entry): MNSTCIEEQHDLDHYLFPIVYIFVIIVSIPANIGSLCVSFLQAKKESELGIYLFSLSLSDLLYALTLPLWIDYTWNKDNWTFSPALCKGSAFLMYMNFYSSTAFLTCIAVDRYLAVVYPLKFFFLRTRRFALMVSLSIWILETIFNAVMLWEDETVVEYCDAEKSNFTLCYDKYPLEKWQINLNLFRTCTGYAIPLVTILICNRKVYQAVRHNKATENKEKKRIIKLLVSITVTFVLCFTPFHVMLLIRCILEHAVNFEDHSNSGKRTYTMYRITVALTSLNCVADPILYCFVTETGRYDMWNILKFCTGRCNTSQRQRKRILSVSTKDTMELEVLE

| SMILES | IC50 |
| --- | --- |
| O=C(Nc1ccc(C(F)(F)F)c(Cl)c1)N1CCc2ccc(F)cc2C1 [Compound 33, N-(3-Chloro-4-(trifluoromethyl)phenyl)-7-fluoro-3,4-dihydroisoquinoline-2(1H)-carboxamide] | < 500 nM |
| Cc1ccc2c(c1)CN(C(=O)Nc1ccc(Cl)c(Cl)c1)CC2 [Compound 34, N-(3,4-Dichlorophenyl)-7-methyl-3,4-dihydroisoquinoline-2(1H)-carboxamide] | > 5000 nM |
| Cc1ccc2c(c1)CN(C(=O)Nc1ccc(C(F)(F)F)c(Cl)c1)CC2 [Compound 35, N-(3-Chloro-4-(trifluoromethyl)phenyl)-7-methyl-3,4-dihydroisoquinoline-2(1H)-carboxamide] | 500 to 5000 nM |
| O=C(Nc1ccc(C(F)(F)F)c(Cl)c1)N1CCc2c(F)cccc2C1 [Compound 36, N-(3-Chloro-4-(trifluoromethyl)phenyl)-5-fluoro-3,4-dihydroisoquinoline-2(1H)-carboxamide] | < 500 nM |
| N#Cc1ccc2c(c1)CCN(C(=O)Nc1ccc(Cl)c(Cl)c1)C2 [Compound 37, 6-Cyano-N-(3,4-dichlorophenyl)-3,4-dihydroisoquinoline-2(1H)-carboxamide] | < 500 nM |
| N#Cc1ccc2c(c1)CCN(C(=O)Nc1ccc(Cl)c(C(F)(F)F)c1)C2 [Compound 38, N-(4-Chloro-3-(trifluoromethyl)phenyl)-6-cyano-3,4-dihydroisoquinoline-2(1H)-carboxamide] | 500 to 5000 nM |
| N#Cc1ccc2c(c1)CCN(C(=O)Nc1ccc(C(F)(F)F)c(Cl)c1)C2 [Compound 39, N-(3-Chloro-4-(trifluoromethyl)phenyl)-6-cyano-3,4-dihydroisoquinoline-2(1H)-carboxamide] | < 500 nM |
| O=C(Nc1ccc(Cl)c(Cl)c1)N1CCc2cc(F)ccc2C1 [Compound 42, N-(3,4-Dichlorophenyl)-6-fluoro-3,4-dihydroisoquinoline-2(1H)-carboxamide] | < 500 nM |
| O=C(Nc1ccc(Cl)c(C(F)(F)F)c1)N1CCc2cc(F)ccc2C1 [Compound 43, N-(4-Chloro-3-(trifluoromethyl)phenyl)-6-fluoro-3,4-dihydroisoquinoline-2(1H)-carboxamide] | < 500 nM |
| O=C(Nc1ccc(C(F)(F)F)c(Cl)c1)N1CCc2cc(F)ccc2C1 [Compound 44, N-(3-Chloro-4-(trifluoromethyl)phenyl)-6-fluoro-3,4-dihydroisoquinoline-2(1H)-carboxamide] | < 500 nM |
| O=C(Nc1ccc(Cl)c(Cl)c1)N1CCc2cccc(F)c2C1 [Compound 45, N-(3,4-Dichlorophenyl)-8-fluoro-3,4-dihydroisoquinoline-2(1H)-carboxamide] | 500 to 5000 nM |
| O=C(Nc1ccc(Cl)c(C(F)(F)F)c1)N1CCc2cccc(F)c2C1 [Compound 46, N-(4-Chloro-3-(trifluoromethyl)phenyl)-8-fluoro-3,4-dihydroisoquinoline-2(1H)-carboxamide] | > 5000 nM |
| O=C(Nc1ccc(C(F)(F)F)c(Cl)c1)N1CCc2cccc(F)c2C1 [Compound 47, N-(3-Chloro-4-(trifluoromethyl)phenyl)-8-fluoro-3,4-dihydroisoquinoline-2(1H)-carboxamide] | 500 to 5000 nM |
| N#Cc1ccc2c(c1)CN(C(=O)Nc1ccc(Cl)c(Cl)c1)CC2 [Compound 49, 7-Cyano-N-(3,4-dichlorophenyl)-3,4-dihydroisoquinoline-2(1H)-carboxamide] | 500 to 5000 nM |
| N#Cc1ccc2c(c1)CN(C(=O)Nc1ccc(Cl)c(C(F)(F)F)c1)CC2 [Compound 50, N-(4-Chloro-3-(trifluoromethyl)phenyl)-7-cyano-3,4-dihydroisoquinoline-2(1H)-carboxamide] | 500 to 5000 nM |
| N#Cc1ccc2c(c1)CN(C(=O)Nc1ccc(C(F)(F)F)c(Cl)c1)CC2 [Compound 51, N-(3-Chloro-4-(trifluoromethyl)phenyl)-7-cyano-3,4-dihydroisoquinoline-2(1H)-carboxamide] | 500 to 5000 nM |
| O=C(Nc1ccc(Cl)c(Cl)c1)N1CCc2cc(Cl)ccc2C1 [Compound 52, 6-Chloro-N-(3,4-dichlorophenyl)-3,4-dihydroisoquinoline-2(1H)-carboxamide] | < 500 nM |

| SMILES | IC50 |
| --- | --- |
| O=C(Nc1ccc(Cl)c(C(F)(F)F)c1)N1CCc2cc(Cl)ccc2C1 [Compound 53, 6-Chloro-N-(4-chloro-3-(trifluoromethyl)phenyl)-3,4-dihydroisoquinoline-2(1H)-carboxamide] | < 500 nM |
| O=C(Nc1ccc(C(F)(F)F)c(Cl)c1)N1CCc2cc(Cl)ccc2C1 [Compound 54, 6-Chloro-N-(3-chloro-4-(trifluoromethyl)phenyl)-3,4-dihydroisoquinoline-2(1H)-carboxamide] | < 500 nM |
| O=C(Nc1ccc(Cl)c(Cl)c1)N1CCc2c(Cl)cccc2C1 [Compound 55, 5-Chloro-N-(3,4-dichlorophenyl)-3,4-dihydroisoquinoline-2(1H)-carboxamide] | 500 to 5000 nM |
| O=C(Nc1ccc(Cl)c(C(F)(F)F)c1)N1CCc2c(Cl)cccc2C1 [Compound 56, 5-Chloro-N-(4-chloro-3-(trifluoromethyl)phenyl)-3,4-dihydroisoquinoline-2(1H)-carboxamide] | > 5000 nM |
| O=C(Nc1ccc(C(F)(F)F)c(Cl)c1)N1CCc2c(Cl)cccc2C1 [Compound 57, 5-Chloro-N-(3-chloro-4-(trifluoromethyl)phenyl)-3,4-dihydroisoquinoline-2(1H)-carboxamide] | 500 to 5000 nM |
| Cc1cccc2c1CCN(C(=O)Nc1ccc(Cl)c(Cl)c1)C2 [Compound 58, N-(3,4-Dichlorophenyl)-5-methyl-3,4-dihydroisoquinoline-2(1H)-carboxamide] | 500 to 5000 nM |
| Cc1cccc2c1CCN(C(=O)Nc1ccc(Cl)c(C(F)(F)F)c1)C2 [Compound 59, N-(4-Chloro-3-(trifluoromethyl)phenyl)-5-methyl-3,4-dihydroisoquinoline-2(1H)-carboxamide] | 500 to 5000 nM |
| Cc1cccc2c1CCN(C(=O)Nc1ccc(C(F)(F)F)c(Cl)c1)C2 [Compound 60, N-(3-Chloro-4-(trifluoromethyl)phenyl)-5-methyl-3,4-dihydroisoquinoline-2(1H)-carboxamide] | 500 to 5000 nM |
| COc1ccc2c(c1)CN(C(=O)Nc1ccc(Cl)c(Cl)c1)CC2 [Compound 61, N-(3,4-Dichlorophenyl)-7-methoxy-3,4-dihydroisoquinoline-2(1H)-carboxamide] | 500 to 5000 nM |
| COc1ccc2c(c1)CN(C(=O)Nc1ccc(Cl)c(C(F)(F)F)c1)CC2 [Compound 62, N-(4-Chloro-3-(trifluoromethyl)phenyl)-7-methoxy-3,4-dihydroisoquinoline-2(1H)-carboxamide] | > 5000 nM |
| COc1ccc2c(c1)CN(C(=O)Nc1ccc(C(F)(F)F)c(Cl)c1)CC2 [Compound 63, N-(3-Chloro-4-(trifluoromethyl)phenyl)-7-methoxy-3,4-dihydroisoquinoline-2(1H)-carboxamide] | 500 to 5000 nM |
| COc1cccc2c1CN(C(=O)Nc1ccc(Cl)c(Cl)c1)CC2 [Compound 64, N-(3,4-Dichlorophenyl)-8-methoxy-3,4-dihydroisoquinoline-2(1H)-carboxamide] | 500 to 5000 nM |
| COc1ccc2c(c1)CCN(C(=O)Nc1ccc(Cl)c(Cl)c1)C2 [Compound 65, N-(3,4-Dichlorophenyl)-6-methoxy-3,4-dihydroisoquinoline-2(1H)-carboxamide] | > 5000 nM |
| COc1ccc2c(c1)CCN(C(=O)Nc1ccc(Cl)c(C(F)(F)F)c1)C2 [Compound 66, N-(4-Chloro-3-(trifluoromethyl)phenyl)-6-methoxy-3,4-dihydroisoquinoline-2(1H)-carboxamide] | 500 to 5000 nM |
| COc1ccc2c(c1)CCN(C(=O)Nc1ccc(C(F)(F)F)c(Cl)c1)C2 [Compound 67, N-(3-Chloro-4-(trifluoromethyl)phenyl)-6-methoxy-3,4-dihydroisoquinoline-2(1H)-carboxamide] | 500 to 5000 nM |
| O=C(Nc1ccc(C(F)(F)F)c(Cl)c1)N1CCc2c(cccc2C(F)(F)F)C1 [Compound 70, N-(3-Chloro-4-(trifluoromethyl)phenyl)-5-(trifluoromethyl)-3,4-dihydroisoquinoline-2(1H)-carboxamide] | > 5000 nM |
| O=C(Nc1ccc(C(F)(F)F)c(Cl)c1)N1CCc2ccc(C(F)(F)F)cc2C1 [Compound 71, N-(3-Chloro-4-(trifluoromethyl)phenyl)-7-(trifluoromethyl)-3,4-dihydroisoquinoline-2(1H)-carboxamide] | 500 to 5000 nM |
